Experiments:
[1] = target: p300 HAT domain (residues 1287-1666) (Homo sapiens (Human), UniProt Q09472); assay: p300 HAT SPA assay (scintillation proximity assay, acetylation of biotinylated H3(1-21) peptide); type: biochemical; details: p300 HAT domain; average of at least 2 replicate titrations; read-out: P300 HAT SPA IC50
Outline: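 Scintillation proximity readout of acetylated biotin-H3(1-21) captured on streptavidin plates after 1.5 hr at RT; enzyme was Ni2+/anion-exchange-purified HAT domain in 20 mM Hepes pH 7.5. Inhibitor IC50s calculated from the data.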

full length p300 = full length p300 (Homo sapiens (Human), UniProt Q09472); assay: full length p300 SPA assay; type: biochemical; details: average of at least 2 replicate titrations, read-out: FL P300 IC50
Sequence of full length p300 (Q09472 whole entry): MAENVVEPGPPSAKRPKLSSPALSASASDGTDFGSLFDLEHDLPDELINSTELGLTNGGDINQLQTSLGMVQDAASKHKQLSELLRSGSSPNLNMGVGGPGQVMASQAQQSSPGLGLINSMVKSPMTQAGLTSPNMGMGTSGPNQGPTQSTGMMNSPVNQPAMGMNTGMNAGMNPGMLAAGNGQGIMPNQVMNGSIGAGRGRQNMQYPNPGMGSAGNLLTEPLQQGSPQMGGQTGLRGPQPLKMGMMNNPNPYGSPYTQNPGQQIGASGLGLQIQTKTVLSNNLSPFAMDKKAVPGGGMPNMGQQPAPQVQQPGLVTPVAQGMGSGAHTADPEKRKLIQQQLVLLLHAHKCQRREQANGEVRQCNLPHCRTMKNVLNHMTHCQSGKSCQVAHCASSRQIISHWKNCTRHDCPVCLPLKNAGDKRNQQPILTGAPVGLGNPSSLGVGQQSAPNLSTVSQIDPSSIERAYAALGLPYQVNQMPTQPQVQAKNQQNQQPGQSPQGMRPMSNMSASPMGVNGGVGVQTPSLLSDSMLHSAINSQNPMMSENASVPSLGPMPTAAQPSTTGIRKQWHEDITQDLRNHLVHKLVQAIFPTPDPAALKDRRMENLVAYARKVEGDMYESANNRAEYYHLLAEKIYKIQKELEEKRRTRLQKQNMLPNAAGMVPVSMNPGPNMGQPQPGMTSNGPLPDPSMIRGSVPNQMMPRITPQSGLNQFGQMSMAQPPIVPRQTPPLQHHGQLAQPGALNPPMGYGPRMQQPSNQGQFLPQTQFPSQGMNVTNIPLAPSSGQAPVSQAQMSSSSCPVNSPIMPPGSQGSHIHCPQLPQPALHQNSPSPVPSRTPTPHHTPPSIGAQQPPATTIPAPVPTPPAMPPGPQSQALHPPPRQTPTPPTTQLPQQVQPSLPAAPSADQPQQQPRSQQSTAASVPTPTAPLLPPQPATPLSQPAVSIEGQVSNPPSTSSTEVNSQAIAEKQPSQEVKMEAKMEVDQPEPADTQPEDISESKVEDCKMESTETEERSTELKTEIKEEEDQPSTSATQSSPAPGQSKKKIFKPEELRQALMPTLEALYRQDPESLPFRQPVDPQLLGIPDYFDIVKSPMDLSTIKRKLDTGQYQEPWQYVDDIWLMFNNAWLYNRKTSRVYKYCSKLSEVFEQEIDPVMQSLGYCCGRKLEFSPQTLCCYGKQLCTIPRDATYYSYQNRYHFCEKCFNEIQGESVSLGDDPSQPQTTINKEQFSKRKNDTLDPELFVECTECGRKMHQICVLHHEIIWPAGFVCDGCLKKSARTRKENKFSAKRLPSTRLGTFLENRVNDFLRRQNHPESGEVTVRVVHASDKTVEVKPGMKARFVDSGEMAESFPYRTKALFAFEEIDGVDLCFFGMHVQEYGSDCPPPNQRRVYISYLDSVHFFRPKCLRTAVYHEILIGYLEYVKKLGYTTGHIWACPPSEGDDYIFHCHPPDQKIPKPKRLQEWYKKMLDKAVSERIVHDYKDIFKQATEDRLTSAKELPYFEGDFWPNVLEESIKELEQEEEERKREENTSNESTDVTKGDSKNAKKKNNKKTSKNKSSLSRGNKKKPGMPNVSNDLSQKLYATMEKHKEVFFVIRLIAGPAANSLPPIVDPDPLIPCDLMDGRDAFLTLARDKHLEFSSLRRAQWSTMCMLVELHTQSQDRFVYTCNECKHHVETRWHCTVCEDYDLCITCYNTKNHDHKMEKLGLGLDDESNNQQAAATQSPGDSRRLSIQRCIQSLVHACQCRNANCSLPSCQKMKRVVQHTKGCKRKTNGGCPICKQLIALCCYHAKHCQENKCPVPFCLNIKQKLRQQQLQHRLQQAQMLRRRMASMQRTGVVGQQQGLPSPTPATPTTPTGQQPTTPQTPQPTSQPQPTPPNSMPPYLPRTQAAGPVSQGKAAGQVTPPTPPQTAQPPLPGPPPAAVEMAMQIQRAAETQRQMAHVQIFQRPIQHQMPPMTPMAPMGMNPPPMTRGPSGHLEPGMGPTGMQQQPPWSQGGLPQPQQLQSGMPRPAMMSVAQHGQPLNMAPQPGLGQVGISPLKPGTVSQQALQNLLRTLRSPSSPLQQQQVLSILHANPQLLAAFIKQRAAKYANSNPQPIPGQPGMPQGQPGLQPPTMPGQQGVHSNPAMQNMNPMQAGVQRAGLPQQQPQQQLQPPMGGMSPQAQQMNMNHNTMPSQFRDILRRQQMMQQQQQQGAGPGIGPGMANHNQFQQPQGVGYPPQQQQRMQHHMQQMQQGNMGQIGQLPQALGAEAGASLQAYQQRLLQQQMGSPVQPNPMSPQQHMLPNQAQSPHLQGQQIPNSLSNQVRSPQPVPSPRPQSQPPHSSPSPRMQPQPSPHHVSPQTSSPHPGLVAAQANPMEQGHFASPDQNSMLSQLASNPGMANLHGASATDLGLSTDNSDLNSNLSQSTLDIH
Description: Reactions were initiated with 12.5 μL 2 μM biotinylated H3(1-21) peptide (New England Peptide) and run for 1 hr at RT, then quenched with 20 μL stop solution (200 mM Tris pH 8.0, 200 mM EDTA, 2M NaCl, 160 μM anacardic acid). 35 μL of the reaction volume was transferred to a 384-well streptavidin FlashPlate (PerkinElmer) using a Bravo liquid handler (Velocity 11) and incubated for 1.5 hr at RT. Plates were aspirated, washed with 95 μL wash buffer (15 mM Tris pH 8.5, 0.069 μM Brij-35), aspirated, sealed, and scintillation counts read on a Topcount (PerkinElmer). Data were analyzed in Genedata to determine inhibitor IC50 values.
The full length p300 SPA assay was run following the same protocol as p300 HAT SPA assay, but used 6 nM purified full length p300 (purchased from Active Motif) in place of the purified p300-HAT domain.

[2] = tested on: acetylation of chromatin at H3K18 (catalyzed by p300 and CBP) in HCT-116 cells; assay: H3K18Ac MSD cellular assay; type: cell-based; details: 2 hr treatment, average of at least 2 replicate titrations
Description: Select compounds were also evaluated in a H3K18Ac MSD cellular assay that measures the ability of compounds to inhibit the acetylation of chromatin at H3K18, a process catalyzed by p300 and CBP. In a typical experiment the p300 HAT inhibitory activity inside cells of the compounds described herein was determined in accordance with the following experimental method. 20 k HCT-116 cells per well are plated in 75 μL RPMI+10% FBS media the night before treatment. Compounds plated in DMSO at 4× final concentration are resuspended in 30 μL RPMI+10% FBS, then 25 μL is combined with corresponding wells containing cells. Treated cells are incubated for 2 hr at 37° C., then lysed in 500 μL final volume and frozen at −80° C. MSD plates (Meso Scale Discovery) are coated overnight at 4° C. with 60 μL 1:500α-total histone antibody (Millipore MAB3422) in PBS. Plates are then blocked with 5% BSA in TBST shaking at RT for 1 hr, washed, and 30 μL lysate added to each well for 2 hr shaking at RT. Plates are washed and 25 μL 1:216α-H3K18ac antibody (CST 9675) in PBS added, then incubated for 1 hr shaking at RT. Plates are washed again, then 25 μL 1:1000 Sulfo-Tag goat a-rabbit antibody (Meso Scale Discovery R32Ab-1) in PBS is added for 1 hr shaking at RT. Plates are washed once more, then 150 μL 1× Read Buffer (MSD #R92TD-3) is added to all wells and read on MSD SECTOR Imager 2400 using the conventional read setup.

Sequence of p300 HAT domain (residues 1287-1666) (Q09472 1287-1666): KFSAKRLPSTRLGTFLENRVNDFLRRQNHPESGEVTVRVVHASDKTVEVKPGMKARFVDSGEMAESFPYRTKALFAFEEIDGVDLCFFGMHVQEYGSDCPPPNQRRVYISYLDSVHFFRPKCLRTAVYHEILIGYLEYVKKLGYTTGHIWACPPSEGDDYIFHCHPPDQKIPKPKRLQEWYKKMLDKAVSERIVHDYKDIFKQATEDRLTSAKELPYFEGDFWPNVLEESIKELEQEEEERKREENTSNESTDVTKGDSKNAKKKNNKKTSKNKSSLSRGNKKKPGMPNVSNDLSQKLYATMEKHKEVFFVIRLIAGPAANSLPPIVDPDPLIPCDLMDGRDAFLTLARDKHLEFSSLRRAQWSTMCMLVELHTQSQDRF

Row | IC50 [1] [nM] | IC50 (full length p300) [nM] | EC50 ([2]; Homo sapiens, HCT-116, 2 h) [nM] | EC50 [2] [nM] | SMILES
1 | 9140 | 196 | – | – | O=C(c1c[nH]c2ccccc12)C(NCCc1ccc(Cl)cc1)c1ccccn1 (racemic) [42 Racemic, (rac)-2-((4-chlorophenethyl)amino)-1-(1H-indol-3-yl)-2-(pyridin-2-yl)ethan-1-one]
2 | 3330 | 120 | – | – | O=C(c1c[nH]c2ccccc12)C(NCCc1ccc(Cl)cc1)c1ccncc1 (racemic) [44 Racemic, (rac)-2-((4-chlorophenethyl)amino)-1-(1H-indol-3-yl)-2-(pyridin-4-yl)ethan-1-one]
3 | 32300 | 732 | – | – | NS(=O)(=O)c1ccc(CCNC(C(=O)c2c[nH]c3cccnc23)c2ccccc2)cc1 (racemic) [Example 30, (rac)-4-(2-((2-oxo-1-phenyl-2-(1H-pyrrolo[3,2-b]pyridin-3-yl)ethyl)amino)ethyl) benzenesulfonamide]
4 | 118 | – | 68.5 | – | Cn1cc(-c2ccc3c(C(=O)C(NCCc4ccc(C#N)cc4)c4ccccc4)c[nH]c3c2F)cn1 (single isomer, unassigned) [103 Isomer 2]
5 | 1600 | – | 928 | – | O=C(c1c[nH]c2cc(-c3ccccn3)ccc12)C(NCCc1ccc(Cl)cc1)c1ccccc1 (single isomer, unassigned) [108 Isomer 1]
6 | 195 | – | 267 | – | Cc1cnc(-c2ccc3c(C(=O)C(NCCc4ccc(Cl)cc4)c4ccccc4)c[nH]c3c2)[nH]1 (single isomer, unassigned) [109 Isomer 2]
7 | 258 | – | 308 | – | Cc1ncc(-c2ccc3c(C(=O)C(NCCc4ccc(Cl)cc4)c4ccccc4)c[nH]c3c2)[nH]1 (single isomer, unassigned) [110 Isomer 2]
8 | 136 | – | 42.6 | – | O=C(c1c[nH]c2cc(-c3cccnn3)ccc12)C(NCCc1ccc(Cl)cc1)c1ccccc1 (single isomer, unassigned) [112 Isomer 2]
9 | 28 | – | 34.2 | – | Cn1cnc(-c2ccc3c(C(=O)C(NCCc4ccc(C#N)cc4)c4ccccc4)c[nH]c3c2)c1 (single isomer, unassigned) [113 Isomer 2]
10 | 19 | – | 92.6 | – | Cn1cc(-c2ccc3c(C(=O)C(NCCc4ccc(C#N)cc4)c4ccccc4)c[nH]c3c2)nn1 (single isomer, unassigned) [114 Isomer 2]
11 | 389 | – | 530 | – | Cn1cnc(-c2ccc3c(C(=O)C(NCCc4ccc(S(N)(=O)=O)cc4)c4ccccc4)c[nH]c3c2)c1 (single isomer, unassigned) [115 Isomer 2]
12 | 413 | – | 148 | – | Cn1cc(-c2ccc3c(C(=O)C(NCCc4ccc(S(N)(=O)=O)cc4)c4ccccc4)c[nH]c3c2)nn1 (single isomer, unassigned) [116 Isomer 2]
13 | 580 | – | 232 | – | NS(=O)(=O)c1ccc(CCNC(C(=O)c2c[nH]c3cc(-n4ccnc4)ccc23)c2ccccc2)cc1 (single isomer, unassigned) [119 Isomer 2]
14 | 987 | – | – | 193 | N#Cc1ccc(CCNC(C(=O)c2c[nH]c3cc(-n4ccnc4)ccc23)c2ccccc2)cc1 (single isomer, unassigned) [120 Isomer 1]
15 | 172 | – | – | 73.1 | N#Cc1ccc(CCNC(C(=O)c2c[nH]c3cc(-n4ccnc4)ccc23)c2ccccc2)cc1 (single isomer, unassigned) [120 Isomer 2]
16 | 82 | – | 122 | – | CN1CCN(c2ccc3c(C(=O)C(NCCc4ccc(C#N)cc4)c4ccccc4)c[nH]c3n2)CC1 (single isomer, unassigned) [121 Isomer 2]
17 | 44 | – | 97.5 | – | CN1CCN(c2ccc3c(C(=O)C(NCCc4ccc(C#N)cc4)c4ccccc4)c[nH]c3c2)CC1 (single isomer, unassigned) [122 Isomer 2]
18 | 566 | – | 429 | – | CN1CCN(c2ccc3c(C(=O)C(NCCc4ccc(S(N)(=O)=O)cc4)c4ccccc4)c[nH]c3c2)CC1 (single isomer, unassigned) [124 Isomer 2]

Row | IC50 [1] [nM] | IC50 (full length p300) [nM] | EC50 ([2]; Homo sapiens, HCT-116, 2 h) [nM] | EC50 [2] [nM] | SMILES
19 | 1290 | – | 101 | – | CNC(=O)c1ccc(CCN[C@H](C(=O)c2c[nH]c3cc(-c4cnn(C)c4)ccc23)c2ccccc2)cc1 (single isomer, unassigned) [131 Isomer 2]
20 | 511 | – | 53.4 | – | Cn1cc(-c2ccc3c(C(=O)C(NCCc4ccc(C(N)=O)cc4)c4ccccc4)c[nH]c3c2)cn1 (single isomer, unassigned) [139 Isomer 2]
21 | 81.6 | – | 1200 | – | Cn1cc(-c2ccc3c(C(=O)C(NCCc4ccc(C(=O)O)cc4Cl)c4ccccc4)c[nH]c3c2)cn1 (single isomer, unassigned) [142 Isomer 2]
22 | 1410 | – | 1380 | – | COc1cccc2c(C(=O)[C@@H](NCCc3ccc(S(N)(=O)=O)cc3)c3ccccc3)c[nH]c12 (single isomer, unassigned) [144 Isomer 2]
23 | 786 | – | – | 401 | CCNC(=O)c1ccc2c(C(=O)[C@@H](NCCc3ccc(C#N)cc3)c3ccccc3)c[nH]c2c1 (single isomer, unassigned) [146 Isomer 1]
24 | 101 | – | 53.5 | – | CNC(=O)c1ccc2c(C(=O)C(NCCc3ccc(Cl)cc3Cl)c3ccccc3)c[nH]c2c1 (single isomer, unassigned) [151 Isomer 2]
25 | 66 | – | 36.4 | – | N#Cc1ccc(CCNC(C(=O)c2c[nH]c3cc(C(=O)NCC(F)(F)F)ccc23)c2ccccc2)cc1 (single isomer, unassigned) [157 Isomer 2]
26 | 1500 | – | 641 | – | CNC(=O)CCc1ccc2c(C(=O)C(NCCc3ccc(F)cc3)c3ccccc3)c[nH]c2c1 (single isomer, unassigned) [158 Isomer 1]
27 | 95.1 | – | 78.1 | – | CC(C)(O)CNC(=O)c1ccc2c(C(=O)C(NCCc3ccc(C#N)cc3)c3ccccc3)c[nH]c2c1 (single isomer, unassigned) [161 Isomer 2]
28 | 41.9 | – | > 1000 | – | CCN1CC(NC(=O)c2ccc3c(C(=O)C(NCCc4ccc(C#N)cc4)c4ccccc4)c[nH]c3c2)C1 (single isomer, unassigned) [163 Isomer 2]
29 | 28.8 | – | 112 | – | N#Cc1ccc(CCNC(C(=O)c2c[nH]c3cc(C(=O)NC4CS(=O)(=O)C4)ccc23)c2ccccc2)cc1 (single isomer, unassigned) [166 Isomer 2]
30 | 965 | – | – | > 1000 | N#Cc1ccc(CCNC(C(=O)c2c[nH]c3cc(C(=O)NC4COC4)ccc23)c2ccccc2)cc1 (single isomer, unassigned) [174 Isomer 1]
31 | 39 | – | – | 98.3 | N#Cc1ccc(CCNC(C(=O)c2c[nH]c3cc(C(=O)NC4COC4)ccc23)c2ccccc2)cc1 (single isomer, unassigned) [174 Isomer 2]
32 | 44 | – | 184 | – | CS(=O)(=O)CCCNC(=O)c1ccc2c(C(=O)C(NCCc3ccc(C#N)cc3)c3ccccc3)c[nH]c2c1 (single isomer, unassigned) [175 Isomer 2]
33 | 838 | – | 1270 | – | Cn1cnc(-c2ccc3c(C(=O)[C@@H](NCCc4ccc(C(N)=O)cc4)c4ccccc4)c[nH]c3c2)c1 (single isomer, unassigned) [177 Isomer 2]
34 | 302 | – | 192 | – | Cn1cc(-c2ccc3c(C(=O)C(NCCc4ccc(C(N)=O)cc4)c4ccccc4)cnn3c2)cn1 (single isomer, unassigned) [179 Isomer 1]
35 | 370 | – | 219 | – | Cn1cc(-c2ccc3c(C(=O)C(NCCc4ccc(C(N)=O)cc4)c4ccccc4)c[nH]c3c2)nn1 (single isomer, unassigned) [180 Isomer 2]
36 | 642 | – | 243 | – | NC(=O)c1ccc(CCNC(C(=O)c2c[nH]c3cc(-n4ccnc4)ccc23)c2ccccc2)cc1 (single isomer, unassigned) [181 Isomer 1]
